Data as given in patent publication US12371428B2 (Exelixis, Inc., priority 2019, dated 2025).
Structures can show the parent of a compound that is named as a salt.

Tests used:
[1] = target: Mer (phospho-Mer, MERTK-transfected 293A cells) (Homo sapiens (Human), UniProt Q12866); experiment: Mer autophosphorylation ELISA in transient transfected 293A cells (Example H); assay type: cell-based; details: cellular activity; Mer autophosphorylation ELISA in transient transfected 293A cells
In short: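 Human MERTK transiently transfected into 293A cells; compounds as 8-point dose curve in serum-free medium (0.3% DMSO final), 1 h. Lysates assayed by phospho-Mer sandwich ELISA against phospho-Mer standard; DMSO = 100%, reference inhibitor = 0% activity; IC50 from 4-parameter logistic fit.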

[2] = target: KDR (phospho-KDR, VEGF165-stimulated HUVEC cells) (Homo sapiens (Human), UniProt P35968); experiment: KDR autophosphorylation ELISA in HUVEC cells (Example G); assay type: cell-based; details: cellular activity; KDR autophosphorylation ELISA in HUVEC cells
Chain of KDR (phospho-KDR, VEGF165-stimulated HUVEC cells) (P35968 20-1356): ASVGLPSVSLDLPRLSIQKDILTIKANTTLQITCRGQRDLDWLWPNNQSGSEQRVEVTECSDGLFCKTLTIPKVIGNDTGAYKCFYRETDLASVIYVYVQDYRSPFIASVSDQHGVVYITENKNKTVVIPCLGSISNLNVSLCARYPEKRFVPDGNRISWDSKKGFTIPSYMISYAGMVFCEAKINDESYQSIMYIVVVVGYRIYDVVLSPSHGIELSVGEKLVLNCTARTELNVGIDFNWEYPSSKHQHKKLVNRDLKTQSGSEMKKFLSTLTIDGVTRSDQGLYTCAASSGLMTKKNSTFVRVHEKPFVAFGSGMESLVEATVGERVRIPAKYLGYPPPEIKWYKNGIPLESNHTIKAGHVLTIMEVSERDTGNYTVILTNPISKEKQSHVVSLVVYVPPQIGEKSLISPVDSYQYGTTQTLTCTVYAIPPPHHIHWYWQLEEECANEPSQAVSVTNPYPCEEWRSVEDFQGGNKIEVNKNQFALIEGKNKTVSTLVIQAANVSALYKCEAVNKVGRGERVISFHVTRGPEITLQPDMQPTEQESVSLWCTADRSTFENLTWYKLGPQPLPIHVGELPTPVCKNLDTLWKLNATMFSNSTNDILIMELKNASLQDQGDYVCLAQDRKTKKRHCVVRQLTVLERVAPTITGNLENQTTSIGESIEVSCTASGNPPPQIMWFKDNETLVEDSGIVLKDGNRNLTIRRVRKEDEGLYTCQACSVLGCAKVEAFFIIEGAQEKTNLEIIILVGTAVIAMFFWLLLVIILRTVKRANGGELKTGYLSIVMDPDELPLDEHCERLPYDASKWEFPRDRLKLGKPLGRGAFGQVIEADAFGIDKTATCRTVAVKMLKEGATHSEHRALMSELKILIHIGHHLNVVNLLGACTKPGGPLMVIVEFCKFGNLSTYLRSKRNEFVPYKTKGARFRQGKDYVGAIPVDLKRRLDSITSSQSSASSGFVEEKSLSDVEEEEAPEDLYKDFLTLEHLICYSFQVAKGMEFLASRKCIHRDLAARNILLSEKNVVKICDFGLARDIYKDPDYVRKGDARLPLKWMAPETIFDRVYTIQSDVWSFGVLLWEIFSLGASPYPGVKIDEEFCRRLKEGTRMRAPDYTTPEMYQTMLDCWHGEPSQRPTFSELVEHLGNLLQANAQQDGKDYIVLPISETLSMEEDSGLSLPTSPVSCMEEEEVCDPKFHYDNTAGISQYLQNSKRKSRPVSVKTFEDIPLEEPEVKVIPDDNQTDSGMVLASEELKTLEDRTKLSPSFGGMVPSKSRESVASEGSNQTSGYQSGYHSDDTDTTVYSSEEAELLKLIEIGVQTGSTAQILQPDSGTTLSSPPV
In short: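 IC50 values derive from nonlinear curve fitting of phospho-KDR levels measured by ELISA and interpolated from a phosphoprotein standard. Beforehand, starved HUVECs received compound (0.3% DMSO vehicle) for one hour and were activated with VEGF165 at 100 ng/mL for 5 min.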

[3] = target: Human KDR (residues 790-1356) (Homo sapiens (Human), UniProt P35968); experiment: Human KDR kinase assay, HTRF KinEase (Example B-2); assay type: biochemical; details: protocol of Example B-2 (other compounds)
Chain of Human KDR (residues 790-1356) (P35968 790-1356): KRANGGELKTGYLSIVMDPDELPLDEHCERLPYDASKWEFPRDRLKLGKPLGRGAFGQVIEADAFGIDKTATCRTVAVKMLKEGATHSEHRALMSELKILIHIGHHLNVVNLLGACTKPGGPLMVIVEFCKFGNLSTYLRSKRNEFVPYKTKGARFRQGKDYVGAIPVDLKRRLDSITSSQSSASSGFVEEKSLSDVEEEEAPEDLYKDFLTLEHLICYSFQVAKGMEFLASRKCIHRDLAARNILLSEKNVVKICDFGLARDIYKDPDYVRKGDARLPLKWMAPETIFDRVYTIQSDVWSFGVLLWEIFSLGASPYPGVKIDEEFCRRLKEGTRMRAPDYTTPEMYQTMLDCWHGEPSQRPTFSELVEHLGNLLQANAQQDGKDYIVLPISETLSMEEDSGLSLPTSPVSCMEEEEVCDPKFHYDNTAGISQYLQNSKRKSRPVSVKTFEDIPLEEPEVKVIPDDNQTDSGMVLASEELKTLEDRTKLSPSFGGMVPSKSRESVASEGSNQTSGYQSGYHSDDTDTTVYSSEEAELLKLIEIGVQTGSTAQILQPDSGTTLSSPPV
In short: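 Human KDR residues 790-1356 (0.1 ng/well) in buffer with 5 mM MgCl2, 1 mM MnCl2, 1 mM DTT, biotinylated peptide substrate, ATP at Km (4.0 μM), 3% DMSO, 10 compound concentrations; 40 min, room temperature. EDTA stop, streptavidin-XL665/Eu-TK antibody HTRF read 665/620 nm; 4-parameter IC50.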

[4] = target: Human MER (residues 528-999) (Homo sapiens (Human), UniProt Q12866); experiment: Human Mer kinase assay, HTRF KinEase (Example C-2); assay type: biochemical; details: protocol of Example C-2 (other compounds)
Chain of Human MER (residues 528-999) (Q12866 528-999): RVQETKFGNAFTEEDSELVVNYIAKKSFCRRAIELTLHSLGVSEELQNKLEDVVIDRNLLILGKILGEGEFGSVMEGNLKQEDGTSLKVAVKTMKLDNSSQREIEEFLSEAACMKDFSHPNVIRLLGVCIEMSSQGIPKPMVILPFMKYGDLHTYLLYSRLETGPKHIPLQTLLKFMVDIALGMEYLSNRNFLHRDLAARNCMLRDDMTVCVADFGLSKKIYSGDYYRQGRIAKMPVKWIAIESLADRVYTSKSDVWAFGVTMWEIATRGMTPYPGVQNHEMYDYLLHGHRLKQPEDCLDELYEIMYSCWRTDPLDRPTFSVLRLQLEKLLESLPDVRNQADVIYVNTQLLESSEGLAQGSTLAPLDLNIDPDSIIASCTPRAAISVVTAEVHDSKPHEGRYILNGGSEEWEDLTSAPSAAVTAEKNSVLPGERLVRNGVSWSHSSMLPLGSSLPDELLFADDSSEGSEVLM
In short: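 HTRF KinEase TK assay with MER 528-999 (1 ng/well) in enzymatic buffer plus 5 mM MgCl2 and 1 mM DTT, biotinylated peptide substrate and ATP at Km (40 μM), 3% DMSO final, 60 min at room temperature. Stopped with EDTA detection mix (SA-XL665, TK antibody-Eu3+), read at 665/620 nm after 60 min; IC50 from 10-point 4-parameter fit, normalized to DMSO and 1 μM reference.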

Chain of Mer (phospho-Mer, MERTK-transfected 293A cells) (Q12866 21-999): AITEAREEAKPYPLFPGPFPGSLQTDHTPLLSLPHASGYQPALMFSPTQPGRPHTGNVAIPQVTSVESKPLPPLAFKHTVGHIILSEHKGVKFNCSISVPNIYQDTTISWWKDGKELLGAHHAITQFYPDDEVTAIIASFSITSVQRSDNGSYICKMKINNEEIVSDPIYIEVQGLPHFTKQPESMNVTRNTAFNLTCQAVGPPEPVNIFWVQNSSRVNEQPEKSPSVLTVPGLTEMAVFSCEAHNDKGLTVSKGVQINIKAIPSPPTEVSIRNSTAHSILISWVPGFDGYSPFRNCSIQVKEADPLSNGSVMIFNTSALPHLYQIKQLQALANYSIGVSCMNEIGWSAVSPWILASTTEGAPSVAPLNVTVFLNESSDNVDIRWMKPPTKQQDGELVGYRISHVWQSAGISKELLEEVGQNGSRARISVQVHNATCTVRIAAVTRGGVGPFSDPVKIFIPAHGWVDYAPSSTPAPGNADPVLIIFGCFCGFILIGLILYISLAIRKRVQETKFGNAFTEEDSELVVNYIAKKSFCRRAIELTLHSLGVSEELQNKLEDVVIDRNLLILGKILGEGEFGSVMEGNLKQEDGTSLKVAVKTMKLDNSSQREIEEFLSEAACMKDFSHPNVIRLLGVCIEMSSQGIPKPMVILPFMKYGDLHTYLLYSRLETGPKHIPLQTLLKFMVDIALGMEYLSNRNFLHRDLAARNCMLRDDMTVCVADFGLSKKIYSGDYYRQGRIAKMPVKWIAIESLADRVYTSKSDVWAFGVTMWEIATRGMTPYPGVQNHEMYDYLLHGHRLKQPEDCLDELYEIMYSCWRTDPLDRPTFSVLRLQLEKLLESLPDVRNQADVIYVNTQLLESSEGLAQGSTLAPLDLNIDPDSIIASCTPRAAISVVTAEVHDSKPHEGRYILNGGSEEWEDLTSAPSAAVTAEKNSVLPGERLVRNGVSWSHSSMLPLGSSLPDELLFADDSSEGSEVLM

| SMILES | IC50 [1] | IC50 [2] | IC50 [3] | IC50 [4] |
| --- | --- | --- | --- | --- |
| COc1cc2nccc(Oc3ccc(NC(=O)c4cnc(C)c(-c5ccc(F)cc5)c4O)cc3F)c2nc1OC [Compound 28, N-[4-[(6,7-Dimethoxy-1,5-naphthyridin-4-yl)oxy]-3-fluorophenyl]-5-(4-fluorophenyl)-4-hydroxy-6-methylpyridine-3-carboxamide] | < 100 nM | < 100 nM | < 100 nM | < 100 nM |
| COc1cc2nccc(Oc3ccc(NC(=O)c4cn(C(C)C)c(C)c(-c5ccccc5)c4=O)cc3F)c2nc1OC [Compound 29, N-[4-[(6,7-Dimethoxy-1,5-naphthyridin-4-yl)oxy]-3-fluorophenyl]-6-methyl-4-oxo-5-phenyl-1-propan-2-ylpyridine-3-carboxamide hydrochloride] | < 100 nM | 100 to 300 nM | < 100 nM | < 100 nM |
| COc1cc2nccc(Oc3ccc(NC(=O)c4cnc(C)c(-c5ccc(F)cc5)c4O)cc3)c2nc1OC [Compound 119, N-[4-[(6,7-Dimethoxy-1,5-naphthyridin-4-yl)oxy]phenyl]-5-(4-fluorophenyl)-4-hydroxy-6-methylpyridine-3-carboxamide] | < 100 nM | < 100 nM | < 100 nM | < 100 nM |
| COc1cnc2c(Oc3ccc(NC(=O)c4cncc(-c5ccc(F)cc5)c4O)cc3F)ccnc2c1 [Compound 120, N-[3-Fluoro-4-[(7-methoxy-1,5-naphthyridin-4-yl)oxy]phenyl]-5-(4-fluorophenyl)-4-hydroxypyridine-3-carboxamide] | < 100 nM | < 100 nM | < 100 nM | < 100 nM |
| COc1cnc2c(Oc3ccc(NC(=O)c4cn(C(C)C)c(C)c(-c5ccc(F)cc5)c4=O)cc3F)ccnc2c1 [Compound 121, N-[3-Fluoro-4-[(7-methoxy-1,5-naphthyridin-4-yl)oxy]phenyl]-5-(4-fluorophenyl)-6-methyl-4-oxo-1-propan-2-ylpyridine-3-carboxamide] | < 100 nM | > 300 nM | > 300 nM | < 100 nM |
| COc1cc2nccc(Oc3ccc(NC(=O)c4cn(C(C)C)cc(-c5ccc(F)cc5)c4=O)cc3)c2nc1OC [Compound 122, N-[4-[(6,7-Dimethoxy-1,5-naphthyridin-4-yl)oxy]phenyl]-5-(4-fluorophenyl)-4-oxo-1-propan-2-ylpyridine-3-carboxamide] | < 100 nM | 100 to 300 nM | < 100 nM | < 100 nM |
| COc1cnc2c(Oc3ccc(NC(=O)c4cn(C(C)C)cc(-c5ccc(F)cc5)c4=O)cc3F)ccnc2c1 [Compound 123, N-[3-Fluoro-4-[(7-methoxy-1,5-naphthyridin-4-yl)oxy]phenyl]-5-(4-fluorophenyl)-4-oxo-1-propan-2-ylpyridine-3-carboxamide] | < 100 nM | > 300 nM | > 300 nM | < 100 nM |
| COc1cc2nccc(Oc3ccc(NC(=O)c4cn(-c5cccnc5)cc(-c5ccc(F)cc5)c4=O)cc3F)c2nc1OC [Compound 125, N-[4-[(6,7-Dimethoxy-1,5-naphthyridin-4-yl)oxy]-3-fluorophenyl]-5-(4-fluorophenyl)-4-oxo-1-pyridin-3-ylpyridine-3-carboxamide] | < 100 nM | > 300 nM | > 300 nM | < 100 nM |
| COc1cc2nccc(Oc3ccc(NC(=O)c4cn(OC)cc(-c5ccc(F)cc5)c4=O)cc3F)c2nc1OC [Compound 126, N-[4-[(6,7-Dimethoxy-1,5-naphthyridin-4-yl)oxy]-3-fluorophenyl]-5-(4-fluorophenyl)-1-methoxy-4-oxopyridine-3-carboxamide] | < 100 nM | < 100 nM | < 100 nM | < 100 nM |
| COc1cc2nccc(Oc3ccc(NC(=O)c4cn(OC)cc(-c5ccc(F)cc5)c4=O)cc3)c2nc1OC [Compound 127, N-[4-[(6,7-Dimethoxy-1,5-naphthyridin-4-yl)oxy]phenyl]-5-(4-fluorophenyl)-1-methoxy-4-oxopyridine-3-carboxamide] | < 100 nM | < 100 nM | < 100 nM | < 100 nM |
| COc1cnc2c(Oc3ccc(NC(=O)c4cn(OC)cc(-c5ccc(F)cc5)c4=O)cc3F)ccnc2c1 [Compound 128, N-[3-Fluoro-4-[(7-methoxy-1,5-naphthyridin-4-yl)oxy]phenyl]-5-(4-fluorophenyl)-1-methoxy-4-oxopyridine-3-carboxamide] | < 100 nM | < 100 nM | 100 to 300 nM | < 100 nM |
| COc1nc2c(Oc3ccc(NC(=O)c4cncc(-c5ccc(F)cc5)c4O)cc3F)ccnc2cc1Br [Compound 129, N-[4-[(7-Bromo-6-methoxy-1,5-naphthyridin-4-yl)oxy]-3-fluorophenyl]-5-(4-fluorophenyl)-4-hydroxypyridine-3-carboxamide] | < 100 nM | < 100 nM | < 100 nM | < 100 nM |
| COc1nc2c(Oc3ccc(NC(=O)c4cnc(C)c(-c5ccc(F)cc5)c4O)cc3F)ccnc2cc1Br [Compound 130, N-[4-[(7-Bromo-6-methoxy-1,5-naphthyridin-4-yl)oxy]-3-fluorophenyl]-5-(4-fluorophenyl)-4-hydroxy-6-methylpyridine-3-carboxamide] | < 100 nM | < 100 nM | < 100 nM | < 100 nM |
| COc1nc2c(Oc3ccc(NC(=O)c4cn(C(C)C)cc(-c5ccc(F)cc5)c4=O)cc3F)ccnc2cc1Br [Compound 131, N-[4-[(7-Bromo-6-methoxy-1,5-naphthyridin-4-yl)oxy]-3-fluorophenyl]-5-(4-fluorophenyl)-4-oxo-1-propan-2-ylpyridine-3-carboxamide] | < 100 nM | > 300 nM | > 300 nM | < 100 nM |
| COc1nc2c(Oc3ccc(NC(=O)c4cn(C(C)C)c(C)c(-c5ccc(F)cc5)c4=O)cc3F)ccnc2cc1Br [Compound 132, N-[4-[(7-Bromo-6-methoxy-1,5-naphthyridin-4-yl)oxy]-3-fluorophenyl]-5-(4-fluorophenyl)-6-methyl-4-oxo-1-propan-2-ylpyridine-3-carboxamide] | < 100 nM | 100 to 300 nM | 100 to 300 nM | < 100 nM |
| COC(=O)c1cnc2c(Oc3ccc(NC(=O)c4cnc(C)c(-c5ccc(F)cc5)c4O)cc3F)ccnc2c1 [Compound 138, Methyl 8-[2-fluoro-4-[[5-(4-fluorophenyl)-4-hydroxy-6-methylpyridine-3-carbonyl]amino]phenoxy]-1,5-naphthyridine-3-carboxylate] | 100 to 300 nM | 100 to 300 nM | > 300 nM | 100 to 300 nM |
| COc1cc2nccc(Oc3ccc(NC(=O)c4cn(C(C)(C)C)c(C)c(-c5ccc(F)cc5)c4=O)cc3F)c2nc1OC [Compound 139, 1-tert-Butyl-N-[4-[(6,7-dimethoxy-1,5-naphthyridin-4-yl)oxy]-3-fluorophenyl]-5-(4-fluorophenyl)-6-methyl-4-oxopyridine-3-carboxamide] | < 100 nM | > 300 nM | > 300 nM | < 100 nM |
| COc1cc2nccc(Oc3ccc(NC(=O)c4cn(-c5cnn(C)c5)c(C)c(-c5ccc(F)cc5)c4=O)cc3F)c2nc1OC [Compound 140, N-[4-[(6,7-Dimethoxy-1,5-naphthyridin-4-yl)oxy]-3-fluorophenyl]-5-(4-fluorophenyl)-6-methyl-1-(1-methylpyrazol-4-yl)-4-oxopyridine-3-carboxamide] | < 100 nM | > 300 nM | > 300 nM | < 100 nM |
| COc1cc2nccc(Oc3ccc(NC(=O)c4cnc(C)c(-c5ccc(F)cc5)c4O)cc3F)c2nc1Br [Compound 142, N-[4-[(6-Bromo-7-methoxy-1,5-naphthyridin-4-yl)oxy]-3-fluorophenyl]-5-(4-fluorophenyl)-4-hydroxy-6-methylpyridine-3-carboxamide] | < 100 nM | < 100 nM | < 100 nM | < 100 nM |
| COc1cc2nccc(Oc3ccc(NC(=O)c4cn(C(C)C)c(C)c(-c5ccc(F)cc5)c4=O)cc3F)c2nc1Br [Compound 143, N-[4-[(6-Bromo-7-methoxy-1,5-naphthyridin-4-yl)oxy]-3-fluorophenyl]-5-(4-fluorophenyl)-6-methyl-4-oxo-1-propan-2-ylpyridine-3-carboxamide] | < 100 nM | 100 to 300 nM | > 300 nM | < 100 nM |
| COCCOc1nc2c(Oc3ccc(NC(=O)c4cnc(C)c(-c5ccc(F)cc5C)c4O)cc3F)ccnc2cc1OC [Compound 144, N-[3-Fluoro-4-[[7-methoxy-6-(2-methoxyethoxy)-1,5-naphthyridin-4-yl]oxy]phenyl]-5-(4-fluoro-2-methylphenyl)-4-hydroxy-6-methylpyridine-3-carboxamide] | < 100 nM | < 100 nM | < 100 nM | < 100 nM |
